According to US12343676B2, “Process and system for capture of carbon dioxide” (COMMONWEALTH SCIENTIFIC AND INDUSTRIAL RESEARCH ORGANISATION, priority 2017, dated 2025):
Read-outs that look alike come from different tables or passages of the source.

Key:
[1] = Protonation constants with enthalpies and entropies, 15.0-45.0 °C; format: physicochemical; details: for ΔH° of log K carb Prot 2 / ΔH° of log K prot / ΔS° of log K carb Prot 2 / ΔS° of log K prot: 15.0-45.0 °C
From the text: From the data in Table 2 the first protonation constants of AMPy, log K prot, are similar to MEA and BZA and fall within a suitable range for CO2 capture processes. Importantly, the large and desired protonation enthalpy (ΔH°) observed for BZA is largely maintained in the AMPy derivatives (−53.9 to −46.6).

pKa at 25 °C = format: physicochemical
[2] = cited from earlier work
[3] = Carbamate stability constants with enthalpies and entropies, 15.0-45.0 °C; format: physicochemical
[4] = Bubble reactor precipitation propensity with pure CO2; format: physicochemical; details: pure CO2 at atmospheric pressure, ambient temperature, aqueous
Description: As part of the absorbent screening process concentrated aqueous 3-AMPy was evaluated for its potential to form solid precipitates in the presence of CO2 at high concentrations. […] A simple bubble reactor was utilised to determine the precipitation propensity while passing a pure CO2 gas stream at atmospheric pressure into a concentrated 3-AMPy solution held at ambient temperature. A concentration of 80 wt % 3-AMPy was achieved before precipitation of the carbamate salt was observed. While a precipitate was observed, it is unlikely this will occur in the pilot plant given the aggressive conditions employed in the simple lab based study. Furthermore, similar precipitation behaviour has been observed for other common aqueous amines in highly concentrated solutions but which are operated successfully in pilot plants.

[5] = water, Table 7, (aminomethyl)pyridines, read-out: pKa of conjugate acid at 25° C. in water

Row | SMILES | ΔH° of log K carb Prot 2 [1] [kJ · mol^−1] | ΔH° of log K prot [1] [kJ · mol^−1] | ΔS° of log K carb Prot 2 [1] [J · mol^−1 · K^−1] | ΔS° of log K prot [1] [J · mol^−1 · K^−1] | log K carb Prot 2 ([1]; 15 °C) | log K prot ([1]; 15 °C) | log K carb Prot 2 ([1]; 25 °C) | log K prot ([1]; 25 °C) | log K prot ([1]; 35 °C) | log K carb Prot 2 ([1]; 45 °C) | log K prot ([1]; 45 °C) | pKa (pKa at 25 °C; 25 °C, read-out: pKa) | pKa (pKa at 25 °C; [5]) | pKa at 25° C. ([2]; Table 8) | ΔH° of log K carb ([3]; 15.0-45.0 °C) [kJ · mol^−1] | ΔS° of log K carb ([3]; 15.0-45.0 °C) [J · mol^−1 · K^−1] | log K carb (carbamate stability constant) ([3]; 15 °C) | log K carb (carbamate stability constant) ([3]; 25 °C) | log K carb (carbamate stability constant) ([3]; 35 °C) | log K carb (carbamate stability constant) ([3]; 45 °C) | further results
1 | NCc1ccccn1 [2-AMPy, 2-(aminomethyl)pyridine] | −17.9 | −46.6 | 24.5 | −10.1 | 1.96 | 8.98 | 1.86 | 8.68 | 8.41 | 1.75 | 8.19 | 8.6 | 8.7 | – | – | – | – | – | – | – | –
2 | OCCC1CCCCN1 (stereo not shown) [2-piperidinylethanol] | – | – | – | – | – | – | – | – | – | – | – | – | – | 10.5 | – | – | – | – | – | – | pKa at 25° C. [2]: 10.5
3 | OCC1CCCCN1 (stereo not shown) [2-piperidinylmethanol] | – | – | – | – | – | – | – | – | – | – | – | – | – | 10.1 | – | – | – | – | – | – | pKa at 25° C. [2]: 10.1
4 | NCc1cccnc1 [3-AMPy, 3-(aminomethyl)pyridine] | −14.5 | −50.6 | −15.2 | 0.8 | 3.42 | 9.11 | 3.34 | 8.83 | 8.51 | 3.17 | 8.26 | 8.6 | 8.8 | – | −36.83 | 82.97 | 2.34 | 2.11 | 1.93 | 1.70 | log K carb Prot 2 ([1]; 35 °C): 3.25; concentration achieved before precipitation of the carbamate salt [4]: 80 wt %
5 | Nc1cccnc1 [3-Aminopyridine, reference compound] | – | – | – | – | – | – | – | – | – | – | – | – | – | – | – | – | – | – | – | – | pKa of conjugate acid at 25° C. in water ([2]; Table 7, aniline and aminopyridines): 6.3
6 | NCc1ccncc1 [4-AMPy, 4-(aminomethyl)pyridine] | −25.5 | −53.9 | 15.3 | 19.6 | 3.84 | 8.77 | 3.65 | 8.43 | 8.08 | 3.41 | 7.86 | 8.6 | 8.4 | – | −30.05 | −58.97 | 2.35 | 2.22 | 2.02 | 1.84 | ΔH° of log K carb Prot ([3]; 15.0-45.0 °C): −38.08 kJ · mol^−1; ΔS° of log K carb Prot ([3]; 15.0-45.0 °C): 4.91 J · mol^−1 · K^−1; log K carb Prot ([3]; 15 °C): 7.15; log K carb Prot ([3]; 25 °C): 6.95; log K carb Prot ([3]; 35 °C): 6.69; log K carb Prot ([3]; 45 °C): 6.52; log K carb Prot 2 ([1]; 35 °C): 3.48
7 | OCC1CCNCC1 [4-piperidinylmethanol] | – | – | – | – | – | – | – | – | – | – | – | – | – | 10.6 | – | – | – | – | – | – | pKa at 25° C. [2]: 10.6
8 | NCc1ccccc1 [BZA, benzylamine, reference compound] | – | −59.5 | – | 20 | – | 9.77 | – | 9.43 | 8.95 | – | 8.61 | – | – | – | −36 | −82 | 2.20 | 2.01 | 1.81 | 1.58 | –
9 | NCCO [MEA, monoethanolamine, reference compound] | – | – | – | – | – | – | – | – | – | – | – | – | – | – | −18 | −35 | 1.85 | 1.76 | 1.66 | 1.55 | –
